From the NIST ThermoML archive (doi:10.1016/j.tca.2017.10.021)
Numbers after ± are expanded uncertainties.

Conditions: Crystal, Transpiration method

| vapor or sublimation pressure (503 K) [kPa] | vapor or sublimation pressure (543 K) [kPa] | Compound | vapor or sublimation pressure (463 K) [kPa] | vapor or sublimation pressure (473 K) [kPa] | vapor or sublimation pressure (483 K) [kPa] | vapor or sublimation pressure (493 K) [kPa] | vapor or sublimation pressure (513 K) [kPa] | vapor or sublimation pressure (393 K) [kPa] | vapor or sublimation pressure (403 K) [kPa] | vapor or sublimation pressure (413 K) [kPa] | vapor or sublimation pressure (423 K) [kPa] | vapor or sublimation pressure (435.5 K) [kPa] | vapor or sublimation pressure (455 K) [kPa] |
| --- | --- | --- | --- | --- | --- | --- | --- | --- | --- | --- | --- | --- | --- |
| 2.758 ± 0.12 | 11.54 ± 0.52 | Cl.N [ammonium chloride (NH4Cl)] | 0.4871 ± 0.02 | 0.7748 ± 0.031 | 1.14 ± 0.045 | 1.683 ± 0.074 | 3.639 ± 0.18 | – | – | – | – | – | – |
| – | – | CN.Cl [methylammonium chloride] | 0.2868 ± 0.015 | 0.4424 ± 0.018 | 0.7211 ± 0.043 | 1.116 ± 0.057 | 2.499 ± 0.098 | 0.0044 ± 0.0003 | 0.0085 ± 0.0004 | 0.0171 ± 0.0008 | 0.0307 ± 0.0015 | 0.0643 ± 0.003 | 0.1683 ± 0.0068 |
